Experimental data published in ChEMBL document CHEMBL1145573, “Lead identification to generate isoquinolinedione inhibitors of insulin-like growth factor receptor (IGF-1R) for potential use in cancer treatment” (Bioorg Med Chem Lett, 2008).
In brackets after ≈: the same amount, converted by molar mass.

Experiments:
[1] = Inhibition of IGFR
[2] = Ratio of IC50 for IR to IC50 for IGFR
[3] = Aqueous solubility at pH 7.4; type: physicochemical

Structure (SMILES)	IC50 [1] [µM]	Ratio IC50 [2]	solubility [3] [µg/mL]
COc1cccc(Nc2ccc3c(c2)/C(=C/Nc2ccccc2)C(=O)NC3=O)c1	> 10		
O=C1NC(=O)c2ccc(Nc3cccc(C(F)(F)F)c3)cc2/C1=C/Nc1ccc(CN2CCCCC2)cc1	> 10		
O=C1NC(=O)c2ccc(Br)cc2/C1=C/Nc1ccc(CN2CCCC2)cc1	2.42		
CCN(CC)Cc1ccc(N/C=C2\C(=O)NC(=O)c3ccc(Nc4ccc(C)cc4)cc32)cc1	1.16	0.64	
CN(C)Cc1ccc(N/C=C2\C(=O)NC(=O)c3ccc(Br)cc32)cc1	7.17	0.58	
N#Cc1ccc(Nc2ccc3c(c2)/C(=C/Nc2ccc(CN4CCCCC4)cc2)C(=O)NC3=O)cc1	1.33		
O=C1NC(=O)c2ccc(Nc3ccccc3Cl)cc2/C1=C/Nc1ccc(CN2CCCCC2)cc1	1.66		
CCOC(=O)c1ccc(Nc2ccc3c(c2)/C(=C/Nc2ccc(CN4CCCCC4)cc2)C(=O)NC3=O)cc1	> 10		
CC(=O)c1ccc(Nc2ccc3c(c2)/C(=C/Nc2ccc(CN4CCCCC4)cc2)C(=O)NC3=O)cc1	5.89		
Cc1cccc(Nc2ccc3c(c2)/C(=C/Nc2ccc(CN4CCCCC4)cc2)C(=O)NC3=O)c1	> 10		
Nc1cccc(Nc2ccc3c(c2)/C(=C/Nc2ccc(CN4CCCCC4)cc2)C(=O)NC3=O)c1	> 10		
COc1cc(Nc2ccc3c(c2)/C(=C/Nc2ccc(CN4CCCCC4)cc2)C(=O)NC3=O)cc(C(F)(F)F)c1	> 10		
Cc1ccccc1Nc1ccc2c(c1)/C(=C/Nc1ccc(CN3CCCCC3)cc1)C(=O)NC2=O	4.14		
O=C1NC(=O)c2ccc(Nc3cccc(Cl)c3)cc2/C1=C/Nc1ccc(CN2CCCCC2)cc1	2.39		
CN(C)c1ccc(Nc2ccc3c(c2)/C(=C/Nc2ccc(CN4CCCCC4)cc2)C(=O)NC3=O)cc1	> 10		
COc1cccc(Nc2ccc3c(c2)/C(=C/Nc2ccc(CN(C)C)cc2)C(=O)NC3=O)c1	1.39	0.48	
O=C1NC(=O)c2ccc(Nc3cccc(Cl)c3)cc2/C1=C/Nc1ccccc1	> 10		
N#Cc1cccc(Nc2ccc3c(c2)/C(=C/Nc2ccc(CN4CCCCC4)cc2)C(=O)NC3=O)c1	1.13		
O=C1NC(=O)c2ccc(Nc3ccc4[nH]ccc4c3)cc2/C1=C/Nc1ccc(CN2CCCCC2)cc1	> 10		
N#Cc1ccccc1Nc1ccc2c(c1)/C(=C/Nc1ccc(CN3CCCCC3)cc1)C(=O)NC2=O	4.2		
O=C1NC(=O)c2ccc(Br)cc2/C1=C/Nc1ccc(CN2CCCCC2)cc1	2.89		
COc1cccc(Nc2ccc3c(c2)/C(=C/Nc2ccc(CN4CCCCC4)cc2)C(=O)NC3=O)c1	1.08		
O=C1NC(=O)c2ccc(Nc3cccc4ncccc34)cc2/C1=C/Nc1ccc(CN2CCCCC2)cc1	5.2		
O=C1NC(=O)c2ccc(Nc3ccc4c(c3)CCC4)cc2/C1=C/Nc1ccc(CN2CCCCC2)cc1	7.93		
O=C1NC(=O)c2ccc(Nc3ccc(Cl)cc3)cc2/C1=C/Nc1ccc(CN2CCCCC2)cc1	> 10		
O=C1NC(=O)c2ccc(Nc3cccc(F)c3)cc2/C1=C/Nc1ccc(CN2CCCCC2)cc1	2.63		

Compounds with a lower IC50 [1], results first:

IC50 [1] [µM]	Ratio IC50 [2]	solubility [3] [µg/mL]	Structure (SMILES)
0.971			COc1ccc(Nc2ccc3c(c2)/C(=C/Nc2ccc(CN4CCCCC4)cc2)C(=O)NC3=O)cc1
0.957			NC(=O)c1ccc(Nc2ccc3c(c2)/C(=C/Nc2ccc(CN4CCCCC4)cc2)C(=O)NC3=O)cc1
0.92	0.62		CN(C)Cc1ccc(N/C=C2\C(=O)NC(=O)c3ccc(Nc4ccccc4)cc32)cc1
0.894			O=C1NC(=O)c2ccc(Nc3ccc4c(c3)OCO4)cc2/C1=C/Nc1ccc(CN2CCCCC2)cc1
0.887	0.87		CC(=O)c1cccc(Nc2ccc3c(c2)/C(=C/Nc2ccc(CN(C)C)cc2)C(=O)NC3=O)c1
0.829	0.83		CN1CCN(c2ccc(N/C=C3\C(=O)NC(=O)c4ccc(NS(=O)(=O)c5ccccc5)cc43)cc2)CC1
0.715	0.75		O=C1NC(=O)c2ccc(-c3ccoc3)cc2/C1=C/Nc1ccc(CN2CCCCC2)cc1
0.629	1		CC1CN(c2ccc(N/C=C3\C(=O)NC(=O)c4ccc(-c5ccoc5)cc43)cc2)CC(C)N1 (stereo unspecified)
0.61			COc1ccccc1Nc1ccc2c(c1)/C(=C/Nc1ccc(CN3CCCCC3)cc1)C(=O)NC2=O
0.566	0.69		COc1ccc(Nc2ccc3c(c2)/C(=C/Nc2ccc(CN(C)C)cc2)C(=O)NC3=O)cc1
0.54	0.85		CC(=O)c1cccc(Nc2ccc3c(c2)/C(=C/Nc2ccc(N4CC(C)NC(C)C4)cc2)C(=O)NC3=O)c1 (stereo unspecified)
0.498	1.14		Cc1ccc(Nc2ccc3c(c2)/C(=C/Nc2ccc(CN4CCCCC4)cc2)C(=O)NC3=O)cc1
0.455	0.87		O=C1NC(=O)c2ccc(Nc3ccccc3)cc2/C1=C/Nc1ccc(CN2CCCCC2)cc1
0.438	0.72		CC(=O)c1cccc(Nc2ccc3c(c2)/C(=C/Nc2ccc(CN4CCCCC4)cc2)C(=O)NC3=O)c1
0.319	1.6	1000 (≈ 2020 µM)	CC(=O)c1cccc(Nc2ccc3c(c2)/C(=C/Nc2ccc(N4CCN(C)CC4)cc2)C(=O)NC3=O)c1
